Source: ChEMBL document CHEMBL1201862, “PubChem BioAssay data set” (2004)
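Tested at 5 concentrations; 48 h exposure; 96-well plates; endpoints linearly interpolated, else capped at highest concentration. GI50 marks 50% less growth.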 The source made the active and inactive calls. Rule as the data show it: active = GI50 up to about 1.1 µM and inactive = higher.

What was measured:
Test in all cases: NCI tumour cell line growth inhibition, 48 h
[1] = system: TK-10
[2] = system: LOX IMVI
[3] = system: Hs-578T
[4] = system: SNB-75
[5] = system: SK-OV-3
[6] = system: RPMI-8226
[7] = system: CAKI-1
[8] = system: SW-620
[9] = system: OVCAR-8
[10] = system: OVCAR-5
[11] = system: NCI-H460
[12] = system: SK-MEL-5
[13] = system: MDA-MB-231
[14] = system: IGROV-1
[15] = system: A549
[16] = system: BT-549
[17] = system: HCT-15
[18] = system: OVCAR-4
[19] = system: SF-295
[20] = system: HL-60
[21] = system: RXF 393
[22] = system: UO-31
[23] = system: HCC 2998
[24] = system: M14
[25] = system: MOLT-4
[26] = system: NCI/ADR-RES
[27] = system: DU-145
[28] = system: NCI-H522
[29] = system: SK-MEL-28
[30] = system: Malme-3M
[31] = system: HOP-62
[32] = system: CCRF-CEM
[33] = system: NCI-H23
[34] = system: ACHN
[35] = system: EKVX
[36] = system: COLO 205
[37] = system: A498
[38] = system: SN12C
[39] = system: SNB-19
[40] = system: HT-29
[41] = system: HOP-92
[42] = system: UACC-62
[43] = system: UACC-257
[44] = system: SR
[45] = system: T47D
[46] = system: MDA-MB-435
[47] = system: SF-268
[48] = system: NCI-H226
[49] = system: K562
[50] = system: HCT-116
[51] = system: 786-0
[52] = system: MCF7
[53] = system: SK-MEL-2
[54] = system: OVCAR-3
[55] = system: SF-539
[56] = system: KM12
[57] = system: PC-3
[58] = system: U-251
[59] = system: MDA-N

Measured: GI50

Cc1cn(S(=O)(=O)c2ccccc2)c2c(OCc3ccccc3)cc(NC(=O)c3cc4cc([N+](=O)[O-])ccc4s3)cc12
> 100 µM: [17]
inactive: [1] > 100 µM | [2] > 100 µM | [3] > 100 µM | [4] 68.9 µM | [5] > 100 µM | [6] > 100 µM | [7] > 100 µM | [8] > 100 µM | [9] > 100 µM | [10] > 100 µM | [11] > 100 µM | [12] > 100 µM | [13] 49.1 µM | [14] > 100 µM | [15] > 100 µM | [16] > 100 µM | [18] > 100 µM | [19] 58.7 µM | [20] 91 µM | [21] > 100 µM | [22] > 100 µM | [23] > 100 µM | [24] 37.8 µM | [25] 59.6 µM | [26] > 100 µM | [27] > 100 µM | [28] > 100 µM | [29] > 100 µM | [30] 89.7 µM | [31] > 100 µM | [32] 38.9 µM | [33] > 100 µM | [34] > 100 µM | [35] > 100 µM | [36] > 100 µM

Nc1nc(Cl)cc(/N=N\c2ccccc2)n1
inactive: [1] 61.2 µM | [37] 61.5 µM | [2] 18.5 µM | [38] 43 µM | [3] 35.9 µM | [4] 38.7 µM | [5] 66.1 µM | [6] 20.7 µM | [39] 45.8 µM | [40] 31.3 µM | [7] 37.6 µM | [8] > 100 µM | [9] 33.2 µM | [10] 72.1 µM | [41] 2.33 µM | [42] 28.2 µM | [12] 15.8 µM | [13] 22.1 µM | [14] 16.6 µM | [43] 36.1 µM | [44] 9.79 µM | [45] 32.6 µM | [46] > 100 µM | [15] 48.2 µM | [16] 72.4 µM | [47] 29.5 µM | [19] 30.7 µM | [20] 6.38 µM | [21] 30.3 µM | [48] 45.2 µM | [49] 2.14 µM | [22] 42.1 µM | [24] 31.8 µM | [50] 16.4 µM | [25] 18.5 µM | [51] 30.6 µM | [26] 39.8 µM | [27] > 100 µM | [28] 30.6 µM | [52] 48.1 µM | [29] > 100 µM | [53] 20.8 µM | [54] 11.7 µM | [30] 83.8 µM | [31] 24.1 µM | [32] 13 µM | [33] 21 µM | [55] 78.9 µM | [34] 26.6 µM | [56] 92.5 µM | [35] 37.2 µM | [36] 27.5 µM
12.5 µM: [17]

COc1ccc(C2c3c(n(C)c(=O)n(C)c3=O)OC(N(C)C)(N(C)C)C2(F)F)cc1 (stereo not given)
> 100 µM: [17]
inactive: [1] > 100 µM | [37] > 100 µM | [2] > 100 µM | [4] > 100 µM | [5] > 100 µM | [6] > 100 µM | [39] > 100 µM | [7] > 100 µM | [8] > 100 µM | [10] > 100 µM | [41] > 100 µM | [11] > 100 µM | [42] > 100 µM | [57] > 100 µM | [58] > 100 µM | [12] > 100 µM | [13] > 100 µM | [43] > 100 µM | [45] > 100 µM | [46] > 100 µM | [15] > 100 µM | [16] > 100 µM | [18] > 100 µM | [47] > 100 µM | [19] > 100 µM | [21] > 100 µM | [48] > 100 µM | [49] 3.2 µM | [22] > 100 µM | [23] > 100 µM | [24] > 100 µM | [50] > 100 µM | [25] 2.92 µM | [51] > 100 µM | [26] > 100 µM | [27] > 100 µM | [52] > 100 µM | [29] > 100 µM | [53] > 100 µM | [54] > 100 µM | [31] > 100 µM | [32] > 100 µM | [33] > 100 µM | [55] > 100 µM | [34] > 100 µM | [56] > 100 µM | [35] > 100 µM | [36] > 100 µM

CC(C)(C)C(=O)/C=C(\OB(F)F)C(C)(C)C
inactive: [1] > 100 µM | [59] > 100 µM | [37] > 100 µM | [2] > 100 µM | [38] > 100 µM | [3] > 100 µM | [4] > 100 µM | [5] > 100 µM | [6] > 100 µM | [39] > 100 µM | [40] > 100 µM | [7] > 100 µM | [8] > 100 µM | [9] > 100 µM | [10] > 100 µM | [41] > 100 µM | [11] > 100 µM | [57] > 100 µM | [58] > 100 µM | [12] > 100 µM | [13] > 100 µM | [14] > 100 µM | [43] > 100 µM | [44] 84.5 µM | [45] > 100 µM | [46] > 100 µM | [15] > 100 µM | [18] > 100 µM | [47] > 100 µM | [19] > 100 µM | [20] > 100 µM | [21] > 100 µM | [48] > 100 µM | [49] > 100 µM | [22] > 100 µM | [23] > 100 µM | [24] > 100 µM | [50] > 100 µM | [25] > 100 µM | [51] > 100 µM | [26] > 100 µM | [27] > 100 µM | [28] > 100 µM | [52] > 100 µM | [29] > 100 µM | [53] > 100 µM | [54] > 100 µM | [30] > 100 µM | [31] > 100 µM | [32] > 100 µM | [33] > 100 µM | [55] > 100 µM | [34] > 100 µM | [56] > 100 µM | [35] > 100 µM | [36] > 100 µM
> 100 µM: [17]
